Publication PMC8963254, “Effects of Lysine N-ζ-Methylation in Ultrashort Tetrabasic Lipopeptides (UTBLPs) on the Potentiation of Rifampicin, Novobiocin, and Niclosamide in Gram-Negative Bacteria” (Antibiotics, 2022)
Read-outs that look alike come from different tables or passages of the source. Non-standard residues stand in square brackets, D forms with d. Residues, ends and D or L forms follow the SMILES beside them. *: point of attachment. Lys(Me3) = C[N+](C)(C)CCCC[C@H](N)C(=O)O; Octanoyl = CCCCCCCC(=O)*

Tests used:
E. coli ATCC 25922 [1] = type: cell-based, Escherichia coli; conditions: ATCC 25922, 18 h
Protocol: (§1) The in vitro antibacterial activity of the UTBLPs was assessed against wild-type and clinically isolated bacterial strains. To obtain the MIC of the compounds, the microbroth dilution susceptibility assay was performed according to the Clinical and Laboratory Standards Institute (CLSI, Wayne, PA, USA) guidelines and as previously described. Briefly, the compounds at varying concentrations were incubated with bacterial inoculum (5 × 10^5 CFU/mL final concentration) at 37 °C for 18 h. Growth in the form of turbidity was confirmed using an EMax Plus microplate reader (Molecular Devices, San Jose, CA, USA) at 590 nm.

MSSE 81388 [2] = type: cell-based, Staphylococcus epidermidis
Protocol: (§2) The synergy of the UTBLPs with various antibiotics was assessed using checkerboard assay as previously described. Briefly, the combination of antibiotic and OMP at varying concentrations were incubated with bacterial inoculum (5 × 10^5 CFU/mL final concentration) at 37 °C for 18 h. Growth in the form of turbidity was confirmed using an EMax Plus microplate reader (Molecular Devices, Union City, CA, USA) at 590 nm. Fractional inhibitory concentration index (FICI) was used to evaluate the interaction between the antibiotic and the OMP. FICI is the sum of the FIC of the antibiotic and the FIC of the OMP. The FIC value is calculated by dividing the MIC of the agents in combination by the MIC of the agent alone. FICI ≤ 0.5 is synergistic, 0.5 < x ≤ 4 is additive, and >4 is antagonistic.

MRSE 61589 [3] = type: cell-based, Staphylococcus epidermidis
Protocol: as §2

MSSE 81388 [4] = type: cell-based, Staphylococcus epidermidis; conditions: 18 h
Protocol: as §1

MRSE 61589 [5] = type: cell-based, Staphylococcus epidermidis; conditions: 61589, 18 h
Protocol: as §1

E. coli ATCC 25922 [6] = type: cell-based, Escherichia coli; conditions: for MICUTBLP: UTBLP alone
Protocol: as §2

E. coli 94474 = type: cell-based, Escherichia coli; conditions: for MICUTBLP: UTBLP alone
Protocol: as §2

E. coli 94393 = type: cell-based, Escherichia coli; conditions: for MICUTBLP: UTBLP alone
Protocol: as §2

A. baumannii 92247 = type: cell-based, Acinetobacter baumannii; conditions: for MICUTBLP: UTBLP alone
Protocol: as §2

A. baumannii AB027 = type: cell-based, Acinetobacter baumannii; conditions: for MICUTBLP: UTBLP alone
Protocol: as §2

A. baumannii ATCC 17978 [7] = type: cell-based, Acinetobacter baumannii; conditions: for MICUTBLP: UTBLP alone
Protocol: as §2

K. pneumoniae 113250 = type: cell-based, Klebsiella pneumoniae; conditions: for MICUTBLP: UTBLP alone
Protocol: as §2

A. baumannii ATCC 17978 [8] = type: cell-based, Acinetobacter baumannii; conditions: ATCC 17978, 18 h
Protocol: as §1

E. faecalis ATCC 29212 = type: cell-based, Enterococcus faecalis; conditions: ATCC 29212, 18 h
Protocol: as §1

E. faecium ATCC 27270 = type: cell-based, Enterococcus faecium; conditions: ATCC 27270, 18 h
Protocol: as §1

[9] = tested on: P. aeruginosa PA262-101856; test: microbe, parasite or virus in culture; type: cell-based, Pseudomonas aeruginosa; conditions: PA262-101856, 18 h
How it was run: (§3)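 MIC was determined by broth microdilution following CLSI guidelines. Serially varied compound concentrations were incubated with bacterial inoculum at 5 × 10^5 CFU/mL (final) for 18 h at 37 °C. Growth was scored as turbidity by absorbance at 590 nm.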

[10] = tested on: P. aeruginosa PA259-96196; test: microbe, parasite or virus in culture; type: cell-based, Pseudomonas aeruginosa; conditions: PA259-96196, 18 h
How it was run: as §3

[11] = UTBLP alone, plate with chloramphenicol
[12] = UTBLP in combination with chloramphenicol
[13] = chloramphenicol in combination with the UTBLP
[14] = UTBLP in combination with niclosamide
[15] = UTBLP in combination with novobiocin
[16] = UTBLP in combination with rifampicin
[17] = niclosamide in combination with the UTBLP
[18] = novobiocin in combination with the UTBLP
[19] = rifampicin in combination with the UTBLP

SMILES: CCCCCCCC(=O)NCCCC[C@H](NC(=O)CCCCCCC)C(=O)N[C@@H](CCCC[N+](C)(C)C)C(=O)N[C@@H](CCCC[N+](C)(C)C)C(=O)N[C@@H](CCCC[N+](C)(C)C)C(=O)N[C@@H](CCCC[N+](C)(C)C)C(N)=O [UTBLP 8] (Octanoyl-K(Octanoyl)[Lys(Me3)][Lys(Me3)][Lys(Me3)][Lys(Me3)]-NH2)
- MIC (E. coli ATCC 25922 [1]): >128 µg/mL
- Interpretation (MSSE 81388 [2]; UTBLP + chloramphenicol): Additive (0.5 < x ≤ 4 is additive)
- MICUTBLP (MSSE 81388 [2]; [11]): 128 µg/mL
- MICUTBLP [MICcombo] (MSSE 81388 [2]; [12]): 0.25 µg/mL
- MICchloramphenicol [MICcombo] (MSSE 81388 [2]; [13]): 4 µg/mL
- Interpretation (MRSE 61589 [3]; UTBLP + chloramphenicol): Additive (0.5 < x ≤ 4 is additive)
- MICUTBLP (MRSE 61589 [3]; [11]): 128 µg/mL
- MICUTBLP [MICcombo] (MRSE 61589 [3]; [12]): 0.25 µg/mL
- MICchloramphenicol [MICcombo] (MRSE 61589 [3]; [13]): 8 µg/mL
- MIC (MSSE 81388 [4]): 128 µg/mL
- MIC (MRSE 61589 [5]): 128 µg/mL
- Interpretation (E. coli ATCC 25922 [6]; UTBLP + chloramphenicol): Synergy (FICI ≤ 0.5 is synergistic)
- Interpretation (E. coli ATCC 25922 [6]; UTBLP + niclosamide): Synergy (FICI ≤ 0.5 is synergistic)
- Interpretation (E. coli ATCC 25922 [6]; UTBLP + novobiocin): Synergy (FICI ≤ 0.5 is synergistic)
- Interpretation (E. coli ATCC 25922 [6]; UTBLP + rifampicin): Additive (0.5 < x ≤ 4 is additive)
- MICUTBLP (E. coli ATCC 25922 [6]; plate with chloramphenicol): > 128 µg/mL
- MICUTBLP (E. coli ATCC 25922 [6]; plate with niclosamide): > 128 µg/mL
- MICUTBLP (E. coli ATCC 25922 [6]; plate with novobiocin): > 128 µg/mL
- MICUTBLP (E. coli ATCC 25922 [6]; plate with rifampicin): > 128 µg/mL
- MICUTBLP [MICcombo] (E. coli ATCC 25922 [6]; [12]): 8 µg/mL
- MICUTBLP [MICcombo] (E. coli ATCC 25922 [6]; [14]): 8 µg/mL
- MICUTBLP [MICcombo] (E. coli ATCC 25922 [6]; [15]): 16 µg/mL
- MICUTBLP [MICcombo] (E. coli ATCC 25922 [6]; [16]): 16 µg/mL
- MICantibiotic [MICcombo] (E. coli ATCC 25922 [6]; [13]): 2 µg/mL
- MICantibiotic [MICcombo] (E. coli ATCC 25922 [6]; [17]): 8 µg/mL
- MICantibiotic [MICcombo] (E. coli ATCC 25922 [6]; [18]): 2 µg/mL
- MICantibiotic [MICcombo] (E. coli ATCC 25922 [6]; [19]): 1 µg/mL
- Interpretation (E. coli 94474; UTBLP + novobiocin): Synergy (FICI ≤ 0.5 is synergistic)
- Interpretation (E. coli 94474; UTBLP + rifampicin): Additive (0.5 < x ≤ 4 is additive)
- MICUTBLP (E. coli 94474; plate with novobiocin): > 128 µg/mL
- MICUTBLP (E. coli 94474; plate with rifampicin): > 128 µg/mL
- MICUTBLP [MICcombo] (E. coli 94474; [15]): 8 µg/mL
- MICUTBLP [MICcombo] (E. coli 94474; [16]): 16 µg/mL
- MICantibiotic [MICcombo] (E. coli 94474; [18]): 64 µg/mL
- MICantibiotic [MICcombo] (E. coli 94474; [19]): 4 µg/mL
- Interpretation (E. coli 94393; UTBLP + novobiocin): Synergy (FICI ≤ 0.5 is synergistic)
- Interpretation (E. coli 94393; UTBLP + rifampicin): Additive (0.5 < x ≤ 4 is additive)
- MICUTBLP (E. coli 94393; plate with novobiocin): 128 µg/mL
- MICUTBLP (E. coli 94393; plate with rifampicin): 128 µg/mL
- MICUTBLP [MICcombo] (E. coli 94393; [15]): 16 µg/mL
- MICUTBLP [MICcombo] (E. coli 94393; [16]): 16 µg/mL
- MICantibiotic [MICcombo] (E. coli 94393; [18]): 16 µg/mL
- Interpretation (A. baumannii 92247; UTBLP + novobiocin): Synergy (FICI ≤ 0.5 is synergistic)
- Interpretation (A. baumannii 92247; UTBLP + rifampicin): Synergy (FICI ≤ 0.5 is synergistic)
- MICUTBLP (A. baumannii 92247; plate with novobiocin): 128 µg/mL
- MICUTBLP (A. baumannii 92247; plate with rifampicin): 128 µg/mL
- MICUTBLP [MICcombo] (A. baumannii 92247; [15]): 16 µg/mL
- MICUTBLP [MICcombo] (A. baumannii 92247; [16]): 16 µg/mL
- MICantibiotic [MICcombo] (A. baumannii 92247; [18]): 0.125 µg/mL
- MICantibiotic [MICcombo] (A. baumannii 92247; [19]): 0.5 µg/mL
- Interpretation (A. baumannii AB027; UTBLP + novobiocin): Synergy (FICI ≤ 0.5 is synergistic)
- Interpretation (A. baumannii AB027; UTBLP + rifampicin): Synergy (FICI ≤ 0.5 is synergistic)
- MICUTBLP (A. baumannii AB027; plate with novobiocin): > 128 µg/mL
- MICUTBLP (A. baumannii AB027; plate with rifampicin): > 128 µg/mL
- MICUTBLP [MICcombo] (A. baumannii AB027; [15]): 16 µg/mL
- MICUTBLP [MICcombo] (A. baumannii AB027; [16]): 16 µg/mL
- MICantibiotic [MICcombo] (A. baumannii AB027; [18]): 2 µg/mL
- MICantibiotic [MICcombo] (A. baumannii AB027; [19]): 0.25 µg/mL
- Interpretation (A. baumannii ATCC 17978 [7]; UTBLP + chloramphenicol): Additive (0.5 < x ≤ 4 is additive)
- Interpretation (A. baumannii ATCC 17978 [7]; UTBLP + niclosamide): Synergy (FICI ≤ 0.5 is synergistic)
- Interpretation (A. baumannii ATCC 17978 [7]; UTBLP + novobiocin): Synergy (FICI ≤ 0.5 is synergistic)
- Interpretation (A. baumannii ATCC 17978 [7]; UTBLP + rifampicin): Synergy (FICI ≤ 0.5 is synergistic)
- MICUTBLP (A. baumannii ATCC 17978 [7]; plate with chloramphenicol): > 128 µg/mL
- MICUTBLP (A. baumannii ATCC 17978 [7]; plate with niclosamide): > 128 µg/mL
- MICUTBLP (A. baumannii ATCC 17978 [7]; plate with novobiocin): > 128 µg/mL
- MICUTBLP (A. baumannii ATCC 17978 [7]; plate with rifampicin): > 128 µg/mL
- MICUTBLP [MICcombo] (A. baumannii ATCC 17978 [7]; [12]): 0.25 µg/mL
- MICUTBLP [MICcombo] (A. baumannii ATCC 17978 [7]; [14]): 2 µg/mL
- MICUTBLP [MICcombo] (A. baumannii ATCC 17978 [7]; [15]): 16 µg/mL
- MICUTBLP [MICcombo] (A. baumannii ATCC 17978 [7]; [16]): 16 µg/mL
- MICantibiotic [MICcombo] (A. baumannii ATCC 17978 [7]; [13]): 64 µg/mL
- MICantibiotic [MICcombo] (A. baumannii ATCC 17978 [7]; [17]): 16 µg/mL
- MICantibiotic [MICcombo] (A. baumannii ATCC 17978 [7]; [18]): 4 µg/mL
- MICantibiotic [MICcombo] (A. baumannii ATCC 17978 [7]; [19]): 0.25 µg/mL
- Interpretation (K. pneumoniae 113250; UTBLP + novobiocin): Synergy (FICI ≤ 0.5 is synergistic)
- Interpretation (K. pneumoniae 113250; UTBLP + rifampicin): Synergy (FICI ≤ 0.5 is synergistic)
- MICUTBLP (K. pneumoniae 113250; plate with novobiocin): > 128 µg/mL
- MICUTBLP (K. pneumoniae 113250; plate with rifampicin): > 128 µg/mL
- MICUTBLP [MICcombo] (K. pneumoniae 113250; [15]): 16 µg/mL
- MICUTBLP [MICcombo] (K. pneumoniae 113250; [16]): 16 µg/mL
- MICantibiotic [MICcombo] (K. pneumoniae 113250; [18]): 32 µg/mL
- MICantibiotic [MICcombo] (K. pneumoniae 113250; [19]): 4 µg/mL
- MIC (A. baumannii ATCC 17978 [8]): >128 µg/mL
- MIC (E. faecalis ATCC 29212): 128 µg/mL
- MIC (E. faecium ATCC 27270): 128 µg/mL
- MIC [9]: > 128 µg/mL
- MIC [10]: > 128 µg/mL
